Experimental data taken from ChEMBL document CHEMBL1201862, “PubChem BioAssay data set” (2004).
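Method: 48-hour compound exposure of cells in 96-well plates, five concentrations, linear interpolation of endpoints. Abbreviation: GI50, concentration required for 50% inhibition of growth.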 Activity calls are given as the source filed them. No stated cut-off is given here; in the data, active = GI50 up to about 1.1 µM and inactive = higher.

Experiments:
Test in all cases: NCI-60 cell line screen, 48 h
M19-MEL = test system: M19-MEL
M14 = test system: M14
NCI-H23 = test system: NCI-H23
SK-MEL-2 = test system: SK-MEL-2
SF-295 = test system: SF-295
Malme-3M = test system: Malme-3M
786-0 = test system: 786-0
A549 = test system: A549
CCRF-CEM = test system: CCRF-CEM
SW-620 = test system: SW-620
HL-60 = test system: HL-60
KM12 = test system: KM12
MOLT-4 = test system: MOLT-4
A498 = test system: A498
COLO 205 = test system: COLO 205
SF-268 = test system: SF-268
SK-MEL-28 = test system: SK-MEL-28
OVCAR-5 = test system: OVCAR-5
T47D = test system: T47D
BT-549 = test system: BT-549

Structure (SMILES) | GI50 (M19-MEL) | GI50 (M14) | GI50 (NCI-H23) | GI50 (SK-MEL-2) | GI50 (SF-295) | GI50 (Malme-3M) | GI50 (786-0) | GI50 (A549) | GI50 (CCRF-CEM) | GI50 (SW-620) | GI50 (HL-60) | GI50 (KM12) | GI50 (MOLT-4) | GI50 (A498) | GI50 (COLO 205) | GI50 (SF-268) | GI50 (SK-MEL-28) | GI50 (OVCAR-5) | GI50 (T47D) | GI50 (BT-549)
CNS(=O)(=O)NN(C)S(=O)(=O)c1ccc(Br)cc1 | > 100 µM (inactive) | > 100 µM (inactive) | > 100 µM (inactive) | > 100 µM (inactive) | > 100 µM (inactive) | > 100 µM (inactive) | > 100 µM (inactive) | > 100 µM (inactive) | > 100 µM (inactive) | > 100 µM (inactive) | > 100 µM (inactive) | > 100 µM (inactive) | > 100 µM (inactive) | > 100 µM (inactive) | > 100 µM (inactive) |  |  |  |  | 
Cc1c(/C=N/NC(=O)c2cc(Br)cc(Br)c2O)c(=O)n(-c2ccccc2)n1C | > 100 µM (inactive) | 36.9 µM (inactive) | 77.3 µM (inactive) | > 100 µM (inactive) | > 100 µM (inactive) | 67.3 µM (inactive) | 92 µM (inactive) | > 100 µM (inactive) | 23.3 µM (inactive) | 53.7 µM (inactive) | 2.49 µM (inactive) | 33.8 µM (inactive) | 56.1 µM (inactive) | > 100 µM (inactive) | 61.2 µM (inactive) | 83.8 µM (inactive) | 20.8 µM (inactive) | > 100 µM (inactive) |  | 
COC1=CC(=O)C2C(C1=O)[C@@H]1c3ccccc3OC(C)(C)[C@H]21 (stereo partly specified) | 20.2 µM (inactive) | 18.7 µM (inactive) | 17.5 µM (inactive) | 26.3 µM (inactive) | 71 µM (inactive) | 18.9 µM (inactive) | 19.1 µM (inactive) | 70 µM (inactive) | 23.1 µM (inactive) | 23.6 µM (inactive) | 16.4 µM (inactive) | 68.1 µM (inactive) | 10.1 µM (inactive) | > 100 µM (inactive) | 19.2 µM (inactive) | 29.6 µM (inactive) | 17.4 µM (inactive) | 40.8 µM (inactive) |  | 
Cc1cc(/N=C/c2ccc(Cl)cc2)n(-c2ccccc2)n1 |  | 48.6 µM (inactive) | 42 µM (inactive) | 53.5 µM (inactive) | 30.8 µM (inactive) | 49.3 µM (inactive) | 37.3 µM (inactive) | 45.3 µM (inactive) | 26.5 µM (inactive) | 39.2 µM (inactive) | 26 µM (inactive) | 23.4 µM (inactive) | 32.2 µM (inactive) | 21.9 µM (inactive) | 23.9 µM (inactive) | 69.3 µM (inactive) | 44.6 µM (inactive) | 87.5 µM (inactive) | 16.7 µM (inactive) | 31.8 µM (inactive)
Cc1c(C(=O)CSc2nc3cc([N+](=O)[O-])ccc3[nH]2)c(=O)n(-c2ccccc2)n1C | > 100 µM (inactive) | > 100 µM (inactive) | > 100 µM (inactive) | > 100 µM (inactive) | > 100 µM (inactive) | 49.7 µM (inactive) | > 100 µM (inactive) | > 100 µM (inactive) | > 100 µM (inactive) | > 100 µM (inactive) | > 100 µM (inactive) | > 100 µM (inactive) | > 100 µM (inactive) | > 100 µM (inactive) | > 100 µM (inactive) | > 100 µM (inactive) | > 100 µM (inactive) | > 100 µM (inactive) |  | 
Cc1c(N2CCOCC2)nc2ccc(Cl)cc2c1-c1ccccc1 | 85.7 µM (inactive) | > 100 µM (inactive) | 69.7 µM (inactive) | > 100 µM (inactive) | > 100 µM (inactive) | 60.5 µM (inactive) | 95.9 µM (inactive) | 43.8 µM (inactive) | 26.7 µM (inactive) | 66.2 µM (inactive) | 34 µM (inactive) | 87.9 µM (inactive) | 21.8 µM (inactive) | > 100 µM (inactive) | > 100 µM (inactive) | 80.2 µM (inactive) | > 100 µM (inactive) |  |  | 
COC(=O)/C(C#N)=C(\N)C(Cl)(Cl)Cl | 2.43 µM (inactive) | 1.43 µM (inactive) | 4.82 µM (inactive) | 5.53 µM (inactive) | 5.09 µM (inactive) |  | 4.11 µM (inactive) | 3.33 µM (inactive) | 0.338 µM (active) | 0.456 µM (active) | 0.319 µM (active) | 4.32 µM (inactive) | 0.379 µM (active) | 3.4 µM (inactive) | 2.32 µM (inactive) | 3.92 µM (inactive) | 2 µM (inactive) |  |  | 
COc1cc(NCC(C#N)C#N)ccc1/N=N/c1ccc([N+](=O)[O-])cc1 | > 100 µM (inactive) | > 100 µM (inactive) | > 100 µM (inactive) | > 100 µM (inactive) | > 100 µM (inactive) | > 100 µM (inactive) | > 100 µM (inactive) | > 100 µM (inactive) | > 100 µM (inactive) | > 100 µM (inactive) |  | > 100 µM (inactive) | 58.3 µM (inactive) | > 100 µM (inactive) | > 100 µM (inactive) | > 100 µM (inactive) | > 100 µM (inactive) | > 100 µM (inactive) |  | 
CC1OC(OC2CCCc3c(O)c4c(c(O)c32)C(=O)c2ccccc2C4=O)CC(N)C1O (stereo unspecified) | 1.78 µM (inactive) | 1.79 µM (inactive) | 1.77 µM (inactive) | 1.75 µM (inactive) | 1.82 µM (inactive) | 1.82 µM (inactive) | 1.29 µM (inactive) | 1.62 µM (inactive) | 1.2 µM (inactive) | 1.33 µM (inactive) | 1.75 µM (inactive) | 1.58 µM (inactive) | 0.652 µM (active) | 1.7 µM (inactive) | 1.62 µM (inactive) | 1.69 µM (inactive) | 1.88 µM (inactive) | 1.91 µM (inactive) |  | 
COc1cc2c(cc1OC)C(=O)C(C1=C(SC(=N)N)C(=O)c3cc(OC)c(OC)cc31)C2 (stereo unspecified) | > 100 µM (inactive) | > 100 µM (inactive) | > 100 µM (inactive) | > 100 µM (inactive) | > 100 µM (inactive) | > 100 µM (inactive) | > 100 µM (inactive) | > 100 µM (inactive) | > 100 µM (inactive) | > 100 µM (inactive) |  | > 100 µM (inactive) | > 100 µM (inactive) |  | > 100 µM (inactive) | > 100 µM (inactive) | > 100 µM (inactive) | > 100 µM (inactive) |  | 
CC(=O)NC1C(OCc2ccccc2)OC(CO)C(O)C1OCC(=O)NC(C)C(=O)NC(CCC(=O)Nc1ccc2c(c1)CN1C(=O)c3ccccc3C1=N2)C(N)=O (stereo unspecified) |  | > 100 µM (inactive) | > 100 µM (inactive) | > 100 µM (inactive) | > 100 µM (inactive) | > 100 µM (inactive) | > 100 µM (inactive) | > 100 µM (inactive) | > 100 µM (inactive) | > 100 µM (inactive) | > 100 µM (inactive) | > 100 µM (inactive) | 89.1 µM (inactive) | > 100 µM (inactive) | > 100 µM (inactive) | > 100 µM (inactive) | > 100 µM (inactive) | > 100 µM (inactive) | 42.8 µM (inactive) | > 100 µM (inactive)
CCOc1ccc(/C=C/C(=O)c2sc(NNC(C)=O)nc2C)cc1 | > 100 µM (inactive) |  | > 100 µM (inactive) | > 100 µM (inactive) | > 100 µM (inactive) | > 100 µM (inactive) | > 100 µM (inactive) | > 100 µM (inactive) | > 100 µM (inactive) | > 100 µM (inactive) | > 100 µM (inactive) | > 100 µM (inactive) | > 100 µM (inactive) | > 100 µM (inactive) | > 100 µM (inactive) | > 100 µM (inactive) | > 100 µM (inactive) | > 100 µM (inactive) |  | 
COc1nc2nccc-2c2occn12 | > 100 µM (inactive) | > 100 µM (inactive) | > 100 µM (inactive) | > 100 µM (inactive) | > 100 µM (inactive) | > 100 µM (inactive) | > 100 µM (inactive) | > 100 µM (inactive) |  | > 100 µM (inactive) |  | > 100 µM (inactive) | > 100 µM (inactive) | > 100 µM (inactive) | > 100 µM (inactive) | > 100 µM (inactive) | > 100 µM (inactive) | > 100 µM (inactive) |  | 
O=C1O[B-](c2ccccc2)(c2ccccc2)[NH2+]C1CS (stereo unspecified) | 35.3 µM (inactive) | 52.6 µM (inactive) | 61.2 µM (inactive) | 83.8 µM (inactive) | > 100 µM (inactive) | 38.2 µM (inactive) | 21.4 µM (inactive) | 92.3 µM (inactive) | 17.7 µM (inactive) | 24.5 µM (inactive) | 23.9 µM (inactive) | 31.8 µM (inactive) | 25.4 µM (inactive) | 41.8 µM (inactive) | 33.4 µM (inactive) | 96.4 µM (inactive) | 66.1 µM (inactive) | > 100 µM (inactive) |  | 
C=C1C(=O)O[C@@H]2C[C@@]3(C)CCC[C@H](C)C3=C[C@H]12 [HELENINE] |  | 3.08 µM (inactive) | 4.94 µM (inactive) | 3.24 µM (inactive) | 17.5 µM (inactive) | 3.95 µM (inactive) | 3.53 µM (inactive) | 16.1 µM (inactive) | 1.52 µM (inactive) | 3.83 µM (inactive) | 1.98 µM (inactive) | 12 µM (inactive) | 1.62 µM (inactive) | 12.4 µM (inactive) | 1.73 µM (inactive) | 12.6 µM (inactive) | 8 µM (inactive) | 17.5 µM (inactive) | 2.64 µM (inactive) | 3.62 µM (inactive)
